Data reported in ChEMBL document CHEMBL3046402, “Synthesis of substituted benzo[d]thiazol-2-ylcarbamates as potential anticonvulsants” (2013).
Active and inactive are the calls of the source. The rule behind the calls is not given here.

Tests used:
Mus musculus [1] = test: Anticonvulsant activity in Swiss albino Mus musculus (mouse) assessed as protection against maximal electric shock-induced death at 35 mg/kg administered 30 min prior to maximal electric shock-challenge; format: functional, organism-based; set-up: dose 35 mg/kg
Mus musculus [2] = test: Anticonvulsant activity against maximal electric shock-induced seizures in Swiss albino Mus musculus (mouse) assessed as time duration of tonic flexions at 35 mg/kg administered 30 min prior to maximal electric shock-challenge (reference value: 0 secs); format: functional
Mus musculus [3] = test: Anticonvulsant activity in Swiss albino Mus musculus (mouse) assessed as time duration of maximal electric shock-induced tonic extension at 35 mg/kg administered 30 min prior to maximal electric shock-challenge (reference value: 20.66 +/- 0.8433 secs); format: functional
Mus musculus [4] = test: Anticonvulsant activity in Swiss albino Mus musculus (mouse) assessed protection against PTZ-induced clonic convulsion at 35 mg/kg administered 60 min prior to PTZ-challenge measured up to 30 min relative to control; format: functional
Mus musculus [5] = test: Anticonvulsant activity in Swiss albino Mus musculus (mouse) assessed as time of onset of PTZ-induced clonic convulsion at 35 mg/kg administered 60 min prior to PTZ-challenge (reference value: 59.166 +/- 0.04216 Secs); format: functional
Mus musculus [6] = test: Anticonvulsant activity in Swiss albino Mus musculus (mouse) assessed as latency time of maximal electric shock-induced clonus onset at 35 mg/kg administered 30 min prior to maximal electric shock-challenge (reference value: 3.16 +/- 0.0833 min); format: functional
Mus musculus [7] = test: Anticonvulsant activity in Swiss albino Mus musculus (mouse) assessed as latency time of maximal electric shock-induced clonus onset at 20 mg/kg administered 30 min prior to maximal electric shock-challenge (reference value: 3.16 +/- 0.0833 min); format: functional
Mus musculus [8] = test: Anticonvulsant activity in Swiss albino Mus musculus (mouse) assessed as time duration of maximal electric shock-induced tonic extension at 20 mg/kg administered 30 min prior to maximal electric shock-challenge (reference value: 20.66 +/- 0.8433 secs); format: functional
Mus musculus [9] = test: Anticonvulsant activity against maximal electric shock-induced seizures in Swiss albino Mus musculus (mouse) assessed as time duration of tonic flexions at 20 mg/kg administered 30 min prior to maximal electric shock-challenge (reference value: 0 secs); format: functional
Mus musculus [10] = test: Anticonvulsant activity in Swiss albino Mus musculus (mouse) assessed protection against PTZ-induced clonic convulsion at 20 mg/kg administered 60 min prior to PTZ-challenge measured up to 30 min relative to control; format: functional
Mus musculus [11] = test: Anticonvulsant activity in Swiss albino Mus musculus (mouse) assessed as protection against maximal electric shock-induced death at 20 mg/kg administered 30 min prior to maximal electric shock-challenge; format: functional, organism-based; set-up: dose 20 mg/kg

SMILES | Activity (Mus musculus [1]) | Time (Mus musculus [2]) [s] | Time (Mus musculus [3]) [s] | Activity (Mus musculus [4]) [%] | Time (Mus musculus [5]) [s] | Time (Mus musculus [6]) [min] | Time (Mus musculus [7]) [min] | Time (Mus musculus [8]) [s] | Time (Mus musculus [9]) [s] | Activity (Mus musculus [10]) [%] | Activity (Mus musculus [11])
COc1ccc2nc(NC(=O)Oc3ccccc3)sc2c1 | Active | 11.08 | 0 | 66.66 | 80.5 | 4.675 | – | – | – | – | –
CCOC(=O)Nc1nc2ccc([N+](=O)[O-])cc2s1 | Active | 7.44 | 0 | 83.33 | 80.5 | 8.37 | – | – | – | – | –
Cc1cccc2sc(NC(=O)Oc3ccccc3)nc12 | Active | 5.48 | 0 | 83.33 | 75.166 | 9.58 | – | – | – | – | –
CCOC(=O)Nc1nc2ccccc2s1 | Active | 7.29 | 0 | 83.33 | 86.66 | 11.18 | – | – | – | – | –
O=C(Nc1nc2ccc([N+](=O)[O-])cc2s1)Oc1ccccc1 | Active | 6.32 | 0 | 100 | – | 10.34 | – | – | – | – | –
Cc1ccc2nc(NC(=O)Oc3ccccc3)sc2c1 | Active | 6.74 | 0 | 100 | – | 13.28 | – | – | – | – | –
O=C(Nc1nc2ccccc2s1)Oc1ccccc1 | Active | 9.54 | 0 | 100 | – | 11.47 | – | – | – | – | –
CCOC(=O)Nc1nc2ccc(Cl)cc2s1 | Active | 9.27 | 0 | 66.66 | 71.83 | 5.4 | – | – | – | – | –
O=C(Nc1nc2ccc(Cl)cc2s1)Oc1ccccc1 | Active | 8.34 | 0 | 66.66 | 70.83 | 11.2 | – | – | – | – | –
CCc1ccc2nc(NC(=O)Oc3ccccc3)sc2c1 | Active | 5.2916 | 0 | 83.33 | 86 | 7.59 | – | – | – | – | –
CCOC(=O)Nc1nc2c(C)cccc2s1 | Active | 7.33 | 0 | 83.33 | 85.166 | 10.36 | – | – | – | – | –
CCOC(=O)Nc1nc2ccc(C)cc2s1 | Active | 6.24 | 0 | 100 | – | 12.55 | – | – | – | – | –
CCOC(=O)Nc1nc2ccc(OC)cc2s1 | Active | 6.4 | 0 | 100 | – | 9.56 | – | – | – | – | –
O=C1NC(=O)C(c2ccccc2)(c2ccccc2)N1 [PHENYTOIN] | – | – | – | – | – | – | 13.39 | 0 | 5.34 | 100 | Active
CCOC(=O)Nc1nc2ccc(CC)cc2s1 | Active | 8.12 | 0 | 83.33 | 83 | 10.415 | – | – | – | – | –
